Activity calls are given as the source filed them. A value given as a limit tells only on which side of the number the result lay.

Test [1] addresses T1, Kappa-type opioid receptor (Homo sapiens, UniProt P41145). In words: SAR analysis of small molecule agonists of the kappa opioid receptor via a luminescent beta-arrestin assay. [Related pubchem assays (depositor defined):AID1777, AID1786, AID1966, AID2133, AID2136, AID2348, AID2352, AID2357, AID2359, AID2370, AID2420, AID2478, AID2491, AID2492, AID2493, AID2497, AID2498, AID2500, AID449737, AID488822, AID488842]. It counts as functional.

Test [2] deals with T2, Delta-type opioid receptor (Homo sapiens, UniProt P41143). In words: HTS Image-Based Screen for Antagonists of the DOR Receptor. [Related pubchem assays (depositor defined):AID1777, AID1785, AID1786, AID2133]. It is filed as functional.
The target of test [3] is T2, Delta-type opioid receptor. As to the kind of experiment: HTS Image-Based Screen for Agonists of the DOR Receptor. [Related pubchem assays (depositor defined):AID1777, AID1786, AID2133]. It counts as functional.
Test [4] has as its target T1, Kappa-type opioid receptor. It counts as functional.
For test [5], the target named is T3, Mu-type opioid receptor (Homo sapiens, UniProt P35372). In words: MOR agonists by imaging, SAR follow-up, image-based (AID 2352). It is filed as functional.
Test [6] concerns the target T1, Kappa-type opioid receptor. In words: KOR antagonists by imaging, SAR follow-up, image-based (AID 2348). It counts as functional.
In test [7] the target is T3, Mu-type opioid receptor. As to the kind of experiment: HTS Image-Based Screen for Agonists of the MOR Receptor. [Related pubchem assays (depositor defined):AID1777, AID1785, AID1786, AID2133]. It counts as functional.
Test [8] deals with T3, Mu-type opioid receptor. In words: MOR antagonists, SAR follow-up, image-based (AID 2420).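 Also: compounds added before stimulation of receptor with agonist DAMGO.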 It counts as functional.
The target of test [9] is T1, Kappa-type opioid receptor. It is filed as functional. This is another data set of the same source.
In test [10] the target is T2, Delta-type opioid receptor. In words: DOR antagonists, SAR follow-up, image-based (AID 2357). It counts as functional.
Test [11] deals with T1, Kappa-type opioid receptor. As to the kind of experiment: KOR agonist analogs, imaging readout, SAR follow-up, image-based (AID 2359). It is filed as functional.
The target of test [12] is T2, Delta-type opioid receptor. In words: DOR agonists, SAR follow-up, image-based (AID 2370). It is filed as functional.
Another test concerns T-cell. As to the kind of experiment: inhibitors of CD8+ T cell–vesicle binding, dose response, mouse 2C CD8+ T cells, flow cytometry (AID 485284). It counts as functional. (In general: Flow cytometry measures light scatter and fluorescence of single cells or particles in a stream.)
The target in test [13] is Voltage-dependent T-type calcium channel subunit alpha-1H (Homo sapiens, UniProt O95180). In words: Cav3.2 T-type channel inhibitors, cell-based, synthetic library set 1, calcium flux (AID 493022). It is filed as functional.
The target of a further test is Hexokinase (Trypanosoma brucei, UniProt Q38C41). As to the kind of experiment: Confirmation assay for inhibitors of Trypanosoma brucei hexokinase 1-Analogue-first series. [Related pubchem assays (depositor defined):AID1430, AID1632, AID2516, AID2560, AID2579, AID2600, AID449725, AID492951]. It counts as functional.
Test [14] addresses Heat shock protein HSP 90-alpha (Homo sapiens, UniProt P07900). It counts as functional, organism-based.
A short description of test [15]: growth suppression of PTEN-null colon cells, dose response, cell-based, HCT116 PTEN knockout (AID 1047).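 Also: HCT116 colon tumor cells with PTEN knocked out; cells exposed to compound for 60 hours before readout; potency for loss of cell viability measured by luminescence.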 It is filed as functional.
A further test addresses Cytochrome P450 2C9 (Homo sapiens, UniProt P11712).
Test [16] is described as follows: Luminescence Cell-Based Dose Retest to Confirm Inhibitors of Cancer Stem Cells. [Related pubchem assays (depositor defined):AID2717, AID2721]. It is filed as functional. The conditions noted are these: Homo sapiens.
A short description of test [17]: growth suppression of beta-catenin-knockout colon cells, dose response, cell-based, HCT116, human colon tumor (AID 1045).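 Also: HCT116 colon tumor cells with beta catenin knocked out; cells exposed to compound for 60 hours.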 It counts as functional.
A further test concerns the target Cytochrome P450 2C19 (Homo sapiens, UniProt P33261). As to the kind of experiment: Cytochrome panel assay with activity outcomes. Panel member name: p450-cyp2c19 Compounds with AC50 equal or less than 10 uM are considered active. It is filed as functional. The conditions noted are these: read-out: AC50.
Another test relates to INS1. As to the kind of experiment: beta cell apoptosis inhibitors, cytokine rescue, dose response, luminescence, retest (AID 449756).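 Also: cell death triggered by IL-1 beta plus TNF-alpha plus IFN-gamma mixture; protective hits raise ATP signal compared with cytokine alone wells.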 It counts as functional, cell-based. The conditions noted are these: Rattus norvegicus.
Another test concerns the target Beta-galactosidase (Escherichia coli, UniProt Q8VNN2). As to the kind of experiment: beta-galactosidase enzyme inhibitors and activators, dose response, artefact control for CCR6 antagonist project, biochemical, E. coli enzyme, set 3 (AID 504712). It counts as functional.

T2 sequence (P41143 whole entry): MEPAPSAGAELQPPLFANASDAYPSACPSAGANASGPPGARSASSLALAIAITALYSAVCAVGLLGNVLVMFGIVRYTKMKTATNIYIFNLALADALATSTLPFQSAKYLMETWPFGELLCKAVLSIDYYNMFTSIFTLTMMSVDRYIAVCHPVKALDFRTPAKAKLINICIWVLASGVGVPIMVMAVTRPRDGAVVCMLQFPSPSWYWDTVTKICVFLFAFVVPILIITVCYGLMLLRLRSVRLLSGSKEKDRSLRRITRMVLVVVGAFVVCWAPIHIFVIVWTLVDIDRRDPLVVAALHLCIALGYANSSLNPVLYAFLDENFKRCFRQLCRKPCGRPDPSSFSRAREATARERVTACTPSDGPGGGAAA
T1 sequence (P41145 whole entry): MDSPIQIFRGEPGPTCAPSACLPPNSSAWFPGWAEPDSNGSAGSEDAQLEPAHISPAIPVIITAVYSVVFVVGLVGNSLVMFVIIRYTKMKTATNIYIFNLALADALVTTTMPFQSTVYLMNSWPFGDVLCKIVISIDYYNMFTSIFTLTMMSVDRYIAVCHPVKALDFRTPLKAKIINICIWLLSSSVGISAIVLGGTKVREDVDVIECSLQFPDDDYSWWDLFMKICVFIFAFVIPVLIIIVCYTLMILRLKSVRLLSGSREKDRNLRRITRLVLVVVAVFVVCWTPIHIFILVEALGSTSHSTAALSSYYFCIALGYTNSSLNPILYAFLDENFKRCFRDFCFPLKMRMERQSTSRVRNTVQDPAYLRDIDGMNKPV
T3 sequence (P35372 whole entry): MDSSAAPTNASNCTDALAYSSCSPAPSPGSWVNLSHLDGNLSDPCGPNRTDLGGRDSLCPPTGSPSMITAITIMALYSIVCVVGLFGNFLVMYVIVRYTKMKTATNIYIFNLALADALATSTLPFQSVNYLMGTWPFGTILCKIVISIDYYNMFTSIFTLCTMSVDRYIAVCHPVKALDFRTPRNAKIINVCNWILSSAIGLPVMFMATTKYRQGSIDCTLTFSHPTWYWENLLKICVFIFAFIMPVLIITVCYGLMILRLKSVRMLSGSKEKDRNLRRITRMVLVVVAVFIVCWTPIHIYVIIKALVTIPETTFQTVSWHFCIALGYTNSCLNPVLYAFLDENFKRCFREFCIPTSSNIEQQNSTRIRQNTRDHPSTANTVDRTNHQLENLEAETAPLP
Hexokinase, sequence (Q38C41 whole entry): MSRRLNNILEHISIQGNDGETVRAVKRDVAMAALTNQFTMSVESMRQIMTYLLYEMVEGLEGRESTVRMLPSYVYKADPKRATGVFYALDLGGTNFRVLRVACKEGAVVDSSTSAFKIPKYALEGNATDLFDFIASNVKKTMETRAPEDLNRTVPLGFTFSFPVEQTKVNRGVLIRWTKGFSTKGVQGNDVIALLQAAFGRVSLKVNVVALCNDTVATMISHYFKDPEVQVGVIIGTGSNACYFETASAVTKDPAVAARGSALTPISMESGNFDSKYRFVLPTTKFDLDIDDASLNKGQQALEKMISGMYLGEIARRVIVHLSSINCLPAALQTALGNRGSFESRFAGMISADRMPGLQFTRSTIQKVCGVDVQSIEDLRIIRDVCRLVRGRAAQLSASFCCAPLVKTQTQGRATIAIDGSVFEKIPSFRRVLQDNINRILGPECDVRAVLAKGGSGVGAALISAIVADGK
Beta-galactosidase, sequence (Q8VNN2 whole entry): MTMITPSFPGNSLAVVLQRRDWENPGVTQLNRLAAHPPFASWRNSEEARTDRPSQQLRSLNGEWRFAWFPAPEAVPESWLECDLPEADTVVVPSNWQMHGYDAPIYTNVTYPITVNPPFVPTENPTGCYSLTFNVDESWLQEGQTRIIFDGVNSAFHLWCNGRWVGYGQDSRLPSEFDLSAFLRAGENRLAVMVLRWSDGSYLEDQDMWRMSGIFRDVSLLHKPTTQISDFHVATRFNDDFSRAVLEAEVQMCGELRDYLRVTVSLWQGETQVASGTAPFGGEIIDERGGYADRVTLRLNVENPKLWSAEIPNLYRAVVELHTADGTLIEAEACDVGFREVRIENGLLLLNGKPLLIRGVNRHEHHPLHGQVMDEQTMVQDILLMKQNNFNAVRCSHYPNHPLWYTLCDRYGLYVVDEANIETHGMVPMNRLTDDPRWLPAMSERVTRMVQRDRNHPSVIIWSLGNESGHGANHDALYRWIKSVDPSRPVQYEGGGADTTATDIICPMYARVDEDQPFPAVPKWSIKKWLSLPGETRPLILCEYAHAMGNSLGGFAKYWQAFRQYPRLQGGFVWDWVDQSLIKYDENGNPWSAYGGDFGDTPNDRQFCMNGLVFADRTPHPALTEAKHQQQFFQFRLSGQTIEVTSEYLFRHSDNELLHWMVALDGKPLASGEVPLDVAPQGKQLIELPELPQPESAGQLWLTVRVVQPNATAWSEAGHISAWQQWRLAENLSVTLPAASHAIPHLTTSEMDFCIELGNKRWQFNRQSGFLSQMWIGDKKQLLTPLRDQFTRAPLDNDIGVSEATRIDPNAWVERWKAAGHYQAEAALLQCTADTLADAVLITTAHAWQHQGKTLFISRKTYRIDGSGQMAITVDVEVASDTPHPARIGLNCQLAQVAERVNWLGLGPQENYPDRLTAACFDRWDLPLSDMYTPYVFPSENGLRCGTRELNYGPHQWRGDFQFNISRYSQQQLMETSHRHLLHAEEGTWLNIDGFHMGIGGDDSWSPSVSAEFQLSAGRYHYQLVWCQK
Cytochrome P450 2C19, sequence (P33261 whole entry): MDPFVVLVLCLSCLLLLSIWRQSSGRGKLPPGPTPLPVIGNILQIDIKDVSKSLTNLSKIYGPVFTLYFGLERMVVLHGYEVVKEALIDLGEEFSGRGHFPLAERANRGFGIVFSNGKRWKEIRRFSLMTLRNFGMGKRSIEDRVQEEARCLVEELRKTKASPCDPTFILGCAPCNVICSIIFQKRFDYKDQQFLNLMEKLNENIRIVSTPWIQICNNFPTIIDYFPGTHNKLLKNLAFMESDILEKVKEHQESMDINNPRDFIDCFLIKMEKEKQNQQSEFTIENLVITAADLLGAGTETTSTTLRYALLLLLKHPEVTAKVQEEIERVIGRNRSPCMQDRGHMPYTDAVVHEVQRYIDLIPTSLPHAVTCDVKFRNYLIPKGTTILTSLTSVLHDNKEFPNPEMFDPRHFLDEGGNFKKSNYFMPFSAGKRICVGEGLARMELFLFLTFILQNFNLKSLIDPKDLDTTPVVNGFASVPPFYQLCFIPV
Cytochrome P450 2C9, sequence (P11712 whole entry): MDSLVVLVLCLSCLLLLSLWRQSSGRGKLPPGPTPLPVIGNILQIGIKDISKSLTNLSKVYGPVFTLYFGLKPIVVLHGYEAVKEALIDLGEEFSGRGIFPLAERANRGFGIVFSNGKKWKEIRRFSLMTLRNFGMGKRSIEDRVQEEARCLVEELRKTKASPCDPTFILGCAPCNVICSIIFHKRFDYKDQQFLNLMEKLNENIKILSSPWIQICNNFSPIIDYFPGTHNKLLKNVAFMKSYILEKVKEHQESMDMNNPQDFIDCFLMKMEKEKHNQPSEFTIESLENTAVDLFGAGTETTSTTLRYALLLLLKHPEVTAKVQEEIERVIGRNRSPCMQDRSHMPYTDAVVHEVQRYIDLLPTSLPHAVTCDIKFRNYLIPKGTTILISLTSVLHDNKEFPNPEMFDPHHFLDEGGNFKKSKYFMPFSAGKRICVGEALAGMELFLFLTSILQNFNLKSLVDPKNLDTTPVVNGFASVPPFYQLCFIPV

For orientation: EC50 means the midpoint of the concentration-response curve. As a reminder, the IC50 is the concentration at which inhibition is half-maximal. For `Clc1ccc(CSc2nnc(-c3ccccn3)n2Cc2ccco2)c(Cl)c1`, the EC50 in test [1] was 1.86 µM (active); in test [3] it was > 32 µM (inactive); in test [4] it was 2.21 µM; at Mu-type opioid receptor [5] it was > 32 µM (inactive); at Mu-type opioid receptor [7], > 32 µM (inactive); in test [9], 1.25 µM. Moreover, the EC50 in test [11] was 0.929 µM (active); in test [12], > 32 µM (inactive). The IC50 (in test [2]; in test [6]; on Mu-type opioid receptor [8]; in test [10]) was > 32 µM (inactive) throughout.

Consider `Cc1ccc(C(=O)NCCCN2CCOCC2)c(C)c1`, for which the EC50 in the test on T-cell is 22.5 µM (inactive).

As to `O=C(COc1ccccc1Cl)Nc1nnc(-c2ccc(F)cc2)o1`, the EC50 in [13] was 4.6 µM (active).

`COc1ccc(C(=O)Nc2cc(C)ccc2C(=O)O)cc1`: on Hexokinase, the IC50 was > 25 µM (inactive).

What is called AC50 is the concentration giving half of the maximal activity seen. As to `Cc1cccc(NC(=S)N/N=C/c2ccc([N+](=O)[O-])s2)c1`, the half-maximal activity concentration (AC50) in test [14] is 15.6 µM (active); at Cytochrome P450 2C9 it was 1.78 µM (inconclusive); in test [16] it was 1.84 µM (active); on Cytochrome P450 2C19, 1.12 µM (inconclusive); in the test on INS1, 3.86 µM (active). Moreover, the EC50 in test [15] was 3.06 µM (active); in [17] it was 1.95 µM (active). In addition, the IC50 at Beta-galactosidase was > 66.6 µM (inactive).

These data come from ChEMBL document CHEMBL1201862, “PubChem BioAssay data set” (2004).
